Test [1] concerns the target T1, Somatostatin receptor type 2 (Homo sapiens, UniProt P30874). Kind of test: Inhibitory constant against human sst2 receptor at a dose of 10 uM.
The target of test [2] is T2, Somatostatin receptor type 5 (Homo sapiens, UniProt P35346). Kind of test: Inhibitory constant against human sst5 receptor at a dose of 10 uM.
In test [3] the target is Somatostatin receptor type 4 (Homo sapiens, UniProt P31391). Kind of test: Binding affinity against human sst4 receptor at a dose of 10 uM.
In test [4] the target is Somatostatin receptor type 1 (Homo sapiens, UniProt P30872). Kind of test: Binding affinity against human sst1 receptor at a dose of 10 uM.
The target in test [5] is Somatostatin receptor type 3 (Homo sapiens, UniProt P32745). Kind of test: Binding affinity against human sst3 receptor at 10 uM.
Test [6] concerns the target T2, Somatostatin receptor type 5. Kind of test: Inhibition of forskolin-induced cAMP accumulation in CHO-K1 cells expressing human sst5 receptor. Type of test: functional, cell-based.
The target in test [7] is T1, Somatostatin receptor type 2. Kind of test: Inhibition of forskolin-induced cAMP accumulation in CHO-K1 cells expressing human sst2 receptor. Format: functional, cell-based.

17 compounds from ChEMBL document CHEMBL1139584 (Bioorg Med Chem Lett, 2005) can be followed below.

For orientation: Ki means the dissociation constant of the complex between target and ligand, obtained from inhibition or displacement. The term EC50 denotes the concentration needed to bring the measured effect to its halfway point. A higher EC50 goes with a need for much substance.

T1 sequence (P30874 whole entry): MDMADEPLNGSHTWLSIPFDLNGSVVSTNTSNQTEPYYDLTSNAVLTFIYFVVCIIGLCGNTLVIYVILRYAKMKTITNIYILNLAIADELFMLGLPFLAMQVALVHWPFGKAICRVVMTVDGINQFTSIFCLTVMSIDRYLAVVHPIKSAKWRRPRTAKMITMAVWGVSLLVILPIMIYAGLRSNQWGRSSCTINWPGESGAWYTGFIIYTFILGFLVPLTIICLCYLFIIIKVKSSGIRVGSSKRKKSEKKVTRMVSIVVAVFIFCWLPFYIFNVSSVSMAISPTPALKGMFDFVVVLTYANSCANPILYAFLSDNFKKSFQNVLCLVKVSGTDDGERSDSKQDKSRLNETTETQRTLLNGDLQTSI
Sequence of Somatostatin receptor type 3 (P32745 whole entry): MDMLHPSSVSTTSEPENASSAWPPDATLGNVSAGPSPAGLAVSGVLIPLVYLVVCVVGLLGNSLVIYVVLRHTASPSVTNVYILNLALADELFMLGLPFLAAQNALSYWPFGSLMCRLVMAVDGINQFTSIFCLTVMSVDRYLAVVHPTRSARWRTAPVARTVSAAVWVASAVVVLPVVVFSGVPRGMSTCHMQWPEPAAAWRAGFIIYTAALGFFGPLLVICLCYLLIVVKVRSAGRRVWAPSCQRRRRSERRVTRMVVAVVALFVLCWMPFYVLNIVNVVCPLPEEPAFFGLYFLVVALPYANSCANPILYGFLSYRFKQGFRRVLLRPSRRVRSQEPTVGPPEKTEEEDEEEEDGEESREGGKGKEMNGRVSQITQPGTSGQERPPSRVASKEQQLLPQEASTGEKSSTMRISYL
Sequence of Somatostatin receptor type 4 (P31391 whole entry): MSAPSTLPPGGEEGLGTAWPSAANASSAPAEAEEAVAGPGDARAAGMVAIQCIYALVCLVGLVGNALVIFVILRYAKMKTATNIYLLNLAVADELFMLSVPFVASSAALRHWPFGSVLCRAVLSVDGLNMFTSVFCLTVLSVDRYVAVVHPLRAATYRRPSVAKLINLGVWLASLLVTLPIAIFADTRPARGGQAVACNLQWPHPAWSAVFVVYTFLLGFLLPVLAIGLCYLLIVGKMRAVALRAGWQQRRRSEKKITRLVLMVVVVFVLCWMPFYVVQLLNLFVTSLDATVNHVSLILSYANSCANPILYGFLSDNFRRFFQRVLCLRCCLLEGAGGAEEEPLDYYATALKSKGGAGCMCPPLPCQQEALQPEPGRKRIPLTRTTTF
T2 sequence (P35346 whole entry): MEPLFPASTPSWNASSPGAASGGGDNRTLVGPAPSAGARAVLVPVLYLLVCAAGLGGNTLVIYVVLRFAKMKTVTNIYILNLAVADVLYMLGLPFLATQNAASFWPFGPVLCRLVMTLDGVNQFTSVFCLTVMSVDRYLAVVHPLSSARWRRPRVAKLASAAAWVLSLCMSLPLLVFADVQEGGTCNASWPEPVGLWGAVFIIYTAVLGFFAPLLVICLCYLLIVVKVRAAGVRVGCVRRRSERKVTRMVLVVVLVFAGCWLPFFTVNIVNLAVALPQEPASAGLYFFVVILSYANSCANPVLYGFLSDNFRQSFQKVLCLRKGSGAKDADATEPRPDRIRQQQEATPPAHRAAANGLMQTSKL
Sequence of Somatostatin receptor type 1 (P30872 whole entry): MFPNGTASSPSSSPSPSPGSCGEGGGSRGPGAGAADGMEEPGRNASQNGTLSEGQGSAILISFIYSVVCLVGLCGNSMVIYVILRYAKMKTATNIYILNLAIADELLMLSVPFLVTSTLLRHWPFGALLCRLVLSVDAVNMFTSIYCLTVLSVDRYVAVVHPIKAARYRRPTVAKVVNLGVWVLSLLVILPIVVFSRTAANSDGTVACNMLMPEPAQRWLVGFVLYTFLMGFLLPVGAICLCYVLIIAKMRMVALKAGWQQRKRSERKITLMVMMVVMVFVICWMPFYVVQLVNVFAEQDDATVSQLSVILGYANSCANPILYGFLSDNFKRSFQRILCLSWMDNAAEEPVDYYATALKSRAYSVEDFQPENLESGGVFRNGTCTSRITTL

Turning to `NCCCCn1c(SCCc2c[nH]c3ccccc23)nnc1-c1cccc(Br)c1`, the Ki amounted to 250 nM in test [1] and 51 nM in test [2].

Turning to `Cc1cccc2c(C(=O)C(C)(C)CSc3nnc(-c4ccc5ccccc5n4)n3CCCCN)c[nH]c12`, the inhibitory constant (Ki) turned out to be 23 nM in test [1] and 9.3 nM in test [2].

For the compound `NCCCCn1c(SCCc2c[nH]c3ccccc23)nnc1-c1ccc2ccccc2c1`, the inhibitory constant (Ki) worked out at 100 nM in test [1] and 27 nM in test [2].

In the case of `NCCCCn1c(SCCc2c[nH]c3c(Cl)cccc23)nnc1-c1ccc2ccccc2n1`, the Ki amounted to 4 nM in test [1]; 130 nM in test [3]; 180 nM in test [4]; 97 nM in test [5]; 8.4 nM in test [2].

As for `NCCCCn1c(SCCc2c[nH]c3ccccc23)nnc1-c1cnc2ccccc2n1`, the values for the Ki in test [1] and in test [2] were 32 nM and 56 nM, respectively.

On to `NCCCCn1c(SCCc2c[nH]c3ccc(Cl)cc23)nnc1-c1ccc2ccccc2n1`, for which the Ki worked out at 5.6 nM in test [1] and 2.3 nM in test [2]. For the same compound, the EC50 stood at 52 nM in test [6] and 6.3 nM in test [7].

As to `NCCCCn1c(SCCc2c[nH]c3ccccc23)nnc1-c1ccc2cc(F)ccc2n1`, the Ki turned out to be 12 nM in test [1] and 7.8 nM in test [2].

Turning to `NCCCCn1c(SCCc2c[nH]c3ccccc23)nnc1-c1cccc2ccccc12`, the inhibition constant (Ki) turned out to be 150 nM in test [1] and 410 nM in test [2].

Turning to `NCCCCCn1c(SCCc2c[nH]c3ccccc23)nnc1-c1ccc2ccccc2c1`, the Ki in test [1] turned out to be 610 nM; in test [2], 70 nM.

`NCCCCn1c(SCCc2c[nH]c3cc(F)ccc23)nnc1-c1ccc2ccccc2n1`: the Ki in test [1] amounted to 2.7 nM; in test [3], 74 nM; in test [4], 58 nM; in test [5] it was 100 nM; in test [2], 1.7 nM. Further, the EC50 in test [6] turned out to be 44 nM; in test [7] it was 14 nM.

Turning to `NCCCCn1c(SCCc2c[nH]c3ccccc23)nnc1-c1cc2ccccc2s1`, the Ki is 160 nM in test [1] and 58 nM in test [2].

For `NCCCCn1c(SCCc2c[nH]c3ccccc23)nnc1-c1cccc2cc[nH]c12`, the Ki was 220 nM in test [1] and 64 nM in test [2].

On to `Cc1cccc2c(CCSc3nnc(-c4ccc5ccccc5n4)n3CCCCN)c[nH]c12`, for which the Ki worked out at 1.8 nM in test [1]; 140 nM in test [3]; 130 nM in test [4]; 41 nM in test [5]; 2.1 nM in test [2]. In addition, the figures for the concentration for a half-maximal effect (EC50) in test [6] and in test [7] were 34 nM and 22 nM, respectively.

On to `CCc1ccc(-c2nnc(SCCc3c[nH]c4ccccc34)n2CCCCN)cc1`, for which the Ki in test [1] was determined as 430 nM; in test [2] it was 26 nM.

Turning to `NCCCn1c(SCCc2c[nH]c3ccccc23)nnc1-c1ccc2ccccc2c1`, the results for the Ki in test [1] and in test [2] were 640 nM and 66 nM, respectively.

Regarding `CN(C)CCCCn1c(SCCc2c[nH]c3ccccc23)nnc1-c1ccc2ccccc2c1`, the Ki is 2800 nM in test [1] and 1300 nM in test [2].

For `Cc1cccc2c(C(=O)CCSc3nnc(-c4ccc5ccccc5n4)n3CCCCN)c[nH]c12`, the Ki in test [1] turned out to be 2 nM; in test [3], 800 nM; in test [4], 530 nM; in test [5], 170 nM; in test [2], 0.38 nM. For the same compound, the EC50 was found to be 2.3 nM in test [6] and 4 nM in test [7].
